{"source": "ChEMBL document CHEMBL4831525", "about": "“Design, synthesis and biological evaluation of quinazoline derivatives as potent and selective FGFR4 inhibitors” (Eur J Med Chem, 2021)", "key": {"[1]": {"tested_on": "Huh-7", "assay": "cells", "settings": "Homo sapiens, Huh-7, 72 h", "description": "Antiproliferative activity against human Huh-7 cells assessed as inhibition of cell proliferation measured after 72 hrs by SRB assay"}, "[2]": {"target": "Fibroblast growth factor receptor 3 (Homo sapiens, UniProt P22607)", "sequence (P22607 whole entry)": "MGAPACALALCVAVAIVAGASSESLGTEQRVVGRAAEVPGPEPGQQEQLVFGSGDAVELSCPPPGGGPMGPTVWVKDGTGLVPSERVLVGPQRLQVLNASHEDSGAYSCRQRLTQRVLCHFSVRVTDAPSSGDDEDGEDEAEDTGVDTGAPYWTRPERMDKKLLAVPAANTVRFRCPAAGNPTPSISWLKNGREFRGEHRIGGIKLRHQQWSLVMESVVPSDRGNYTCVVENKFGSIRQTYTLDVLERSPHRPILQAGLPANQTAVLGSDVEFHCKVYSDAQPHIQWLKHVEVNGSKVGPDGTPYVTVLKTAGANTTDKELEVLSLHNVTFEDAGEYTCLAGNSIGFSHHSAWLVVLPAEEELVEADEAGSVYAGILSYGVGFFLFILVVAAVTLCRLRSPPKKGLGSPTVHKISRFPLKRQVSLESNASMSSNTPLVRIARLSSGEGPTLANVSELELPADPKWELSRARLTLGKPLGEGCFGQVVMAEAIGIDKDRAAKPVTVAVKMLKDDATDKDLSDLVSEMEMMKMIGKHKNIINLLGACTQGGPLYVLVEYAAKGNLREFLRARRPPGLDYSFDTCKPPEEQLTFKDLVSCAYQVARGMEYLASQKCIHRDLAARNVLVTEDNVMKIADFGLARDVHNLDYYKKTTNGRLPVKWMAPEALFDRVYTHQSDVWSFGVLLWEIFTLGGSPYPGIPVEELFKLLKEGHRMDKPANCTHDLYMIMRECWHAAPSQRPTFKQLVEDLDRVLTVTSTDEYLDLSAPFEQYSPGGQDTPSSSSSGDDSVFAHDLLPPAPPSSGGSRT", "assay": "Inhibition of FGFR3 (unknown origin)"}, "[3]": {"target": "Fibroblast growth factor receptor 2 (Homo sapiens, UniProt P21802)", "sequence (P21802 whole entry)": "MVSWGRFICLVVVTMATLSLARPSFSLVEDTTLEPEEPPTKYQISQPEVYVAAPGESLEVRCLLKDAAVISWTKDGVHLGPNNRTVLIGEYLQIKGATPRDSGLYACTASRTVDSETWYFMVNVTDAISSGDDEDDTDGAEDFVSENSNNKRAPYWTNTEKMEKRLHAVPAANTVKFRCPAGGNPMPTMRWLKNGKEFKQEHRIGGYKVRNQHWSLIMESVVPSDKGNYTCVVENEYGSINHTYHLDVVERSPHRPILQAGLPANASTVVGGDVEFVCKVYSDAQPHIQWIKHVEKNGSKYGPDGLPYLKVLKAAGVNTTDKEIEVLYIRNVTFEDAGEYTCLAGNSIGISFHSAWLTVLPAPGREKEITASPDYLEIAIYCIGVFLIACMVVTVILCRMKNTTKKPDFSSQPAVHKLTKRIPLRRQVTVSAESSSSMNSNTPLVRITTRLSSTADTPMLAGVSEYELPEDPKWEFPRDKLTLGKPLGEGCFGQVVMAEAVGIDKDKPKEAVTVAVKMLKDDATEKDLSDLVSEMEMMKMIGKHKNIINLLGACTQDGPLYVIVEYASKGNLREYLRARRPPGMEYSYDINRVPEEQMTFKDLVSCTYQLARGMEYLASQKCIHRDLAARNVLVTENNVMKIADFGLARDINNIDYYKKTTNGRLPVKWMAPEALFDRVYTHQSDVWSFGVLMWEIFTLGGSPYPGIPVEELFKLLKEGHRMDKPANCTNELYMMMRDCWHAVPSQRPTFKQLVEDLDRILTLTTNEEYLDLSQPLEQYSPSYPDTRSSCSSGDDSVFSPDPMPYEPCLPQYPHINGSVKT", "assay": "Inhibition of FGFR2 (unknown origin)"}, "[4]": {"target": "Fibroblast growth factor receptor 1 (Homo sapiens, UniProt P11362)", "sequence (P11362 whole entry)": "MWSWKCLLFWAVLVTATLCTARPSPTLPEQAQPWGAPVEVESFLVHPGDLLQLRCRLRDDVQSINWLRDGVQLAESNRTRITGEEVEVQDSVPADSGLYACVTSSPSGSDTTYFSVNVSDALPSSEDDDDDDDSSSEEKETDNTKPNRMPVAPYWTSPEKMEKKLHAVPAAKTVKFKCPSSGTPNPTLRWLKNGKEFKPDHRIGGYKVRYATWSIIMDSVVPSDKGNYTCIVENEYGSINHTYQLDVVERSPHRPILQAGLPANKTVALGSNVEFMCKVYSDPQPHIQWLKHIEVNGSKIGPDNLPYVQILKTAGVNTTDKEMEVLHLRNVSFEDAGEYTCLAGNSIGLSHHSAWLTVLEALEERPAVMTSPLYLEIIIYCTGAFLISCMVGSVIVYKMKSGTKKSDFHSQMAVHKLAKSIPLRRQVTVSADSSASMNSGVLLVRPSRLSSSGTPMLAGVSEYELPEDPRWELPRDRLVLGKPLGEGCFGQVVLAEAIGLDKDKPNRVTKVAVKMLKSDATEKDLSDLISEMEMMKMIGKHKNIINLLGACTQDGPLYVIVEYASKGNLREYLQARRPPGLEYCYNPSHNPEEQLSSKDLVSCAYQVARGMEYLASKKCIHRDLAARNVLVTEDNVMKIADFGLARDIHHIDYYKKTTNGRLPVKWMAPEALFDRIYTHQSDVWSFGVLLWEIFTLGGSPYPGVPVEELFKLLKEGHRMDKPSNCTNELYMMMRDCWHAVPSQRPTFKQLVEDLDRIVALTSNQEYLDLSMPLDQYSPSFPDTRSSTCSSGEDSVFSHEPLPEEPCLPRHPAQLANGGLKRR", "assay": "Inhibition of FGFR1 (unknown origin)"}, "[5]": {"assay": "Stability of the compound in rat liver microsomes assessed as parent compound remaining incubated for 60 mins in presence of NADPH by LC-MS analysis", "type": "ADME, Microsome", "settings": "read-out: Stability"}, "[6]": {"tested_on": "Hep 3B2", "assay": "Induction of apoptosis in human Hep3B cells assessed as increase in cleaved PARP level at 3 to 20 uM by Western blot analysis", "type": "functional, cell-based", "settings": "dose 3-20 µM"}, "[7]": {"assay": "Stability of the compound in rat plasma assessed as parent compound remaining incubated for 60 mins", "type": "ADME, cell-free", "settings": "read-out: Stability"}, "[8]": {"target": "T1, Fibroblast growth factor receptor 4 (Homo sapiens, UniProt P22455)", "description": "Inhibition of FGFR4 (unknown origin)"}, "[9]": {"target": "T1, Fibroblast growth factor receptor 4", "assay": "Inhibition of N-terminal GST fusion tagged human FGFR4 cytoplasmic domain (460 to 802 end residues) expressed in baculovirus expression system at 1 nM preincubated for 10 mins followed by substrate addition and further incubated for 30 mins in presence of ATP at Km concentration by caliper mobility shift assay relative to control", "settings": "time 40.0 min"}}, "note": "Active and inactive are the calls of the source. No cut-off for these calls is given here."}
{"molecule": "C=CC(=O)Nc1cc(CCN2CCN(C)CC2)cc(C)c1Nc1ncc2cc(-c3c(Cl)c(OC)cc(OC)c3Cl)ccc2n1", "values": [{"measurement": "IC50", "setting": "[1]", "value": 7140, "unit": "nM"}]}
{"molecule": "C=CC(=O)Nc1cc(CCO)cc(C)c1Nc1ncc2cc(-c3c(Cl)c(OC)cc(OC)c3Cl)ccc2n1", "values": [{"measurement": "IC50", "setting": "[1]", "value": 2410, "unit": "nM"}]}
{"molecule": "C=CC(=O)Nc1cc(S(C)(=O)=O)cc(C)c1Nc1ncc2cc(-c3c(Cl)c(OC)cc(OC)c3Cl)ccc2n1", "values": [{"measurement": "IC50", "setting": "[1]", "value": 1940, "unit": "nM"}, {"measurement": "IC50", "setting": "[2]", "value": 3870, "unit": "nM"}, {"measurement": "IC50", "setting": "[3]", "value": 379, "unit": "nM"}, {"measurement": "IC50", "setting": "[4]", "value": 886, "unit": "nM"}]}
{"molecule": "C=CC(=O)Nc1cc(CCN2CCc3ccccc3C2)cc(C)c1Nc1ncc2cc(-c3c(Cl)c(OC)cc(OC)c3Cl)ccc2n1", "values": [{"measurement": "IC50", "setting": "[1]", "value": 4450, "unit": "nM"}]}
{"molecule": "C=CC(=O)Nc1cc(CCN(CC)CCC)cc(C)c1Nc1ncc2cc(-c3c(Cl)c(OC)cc(OC)c3Cl)ccc2n1", "values": [{"measurement": "IC50", "setting": "[1]", "value": 4330, "unit": "nM"}]}
{"molecule": "C=CC(=O)Nc1cc(S(=O)(=O)NC(=O)C=C)ccc1Nc1ncc2cc(-c3c(Cl)c(OC)cc(OC)c3Cl)ccc2n1", "values": [{"measurement": "IC50", "setting": "[1]", "value": 4750, "unit": "nM"}]}
{"molecule": "C=CC(=O)Nc1cc(S(C)(=O)=O)ccc1Nc1ncc2cc(-c3c(Cl)c(OC)cc(OC)c3Cl)ccc2n1", "values": [{"measurement": "IC50", "setting": "[1]", "value": 2160, "unit": "nM"}, {"measurement": "IC50", "setting": "[2]", "value": 102, "unit": "nM"}, {"measurement": "IC50", "setting": "[3]", "value": 15, "unit": "nM"}, {"measurement": "IC50", "setting": "[4]", "value": 28, "unit": "nM"}]}
{"molecule": "C=CC(=O)Nc1cc(SC)ccc1Nc1ncc2cc(-c3c(Cl)c(OC)cc(OC)c3Cl)ccc2n1", "values": [{"measurement": "IC50", "setting": "[1]", "value": 936, "unit": "nM"}, {"measurement": "IC50", "setting": "[2]", "value": 79, "unit": "nM"}, {"measurement": "IC50", "setting": "[3]", "value": 24, "unit": "nM"}, {"measurement": "IC50", "setting": "[4]", "value": 39, "unit": "nM"}]}
{"molecule": "C=CC(=O)Nc1cc(CCN2CCOCC2)cc(C)c1Nc1ncc2cc(-c3c(Cl)c(OC)cc(OC)c3Cl)ccc2n1", "values": [{"measurement": "IC50", "setting": "[1]", "value": 13300, "unit": "nM"}]}
{"molecule": "C=CC(=O)Nc1cc(CCN2CCCC2CN2CCCC2)cc(C)c1Nc1ncc2cc(-c3c(Cl)c(OC)cc(OC)c3Cl)ccc2n1", "note": "(centres undefined)", "values": [{"measurement": "IC50", "setting": "[1]", "value": 3560, "unit": "nM"}]}
{"molecule": "C=CC(=O)Nc1cc(CCCN2CCCC2)cc(C)c1Nc1ncc2cc(-c3c(Cl)c(OC)cc(OC)c3Cl)ccc2n1", "values": [{"measurement": "IC50", "setting": "[1]", "value": 4260, "unit": "nM"}]}
{"molecule": "C=CC(=O)Nc1cc(CCN2CCN(C3COC3)CC2)cc(C)c1Nc1ncc2cc(-c3c(Cl)c(OC)cc(OC)c3Cl)ccc2n1", "values": [{"measurement": "IC50", "setting": "[1]", "value": 8480, "unit": "nM"}]}
{"molecule": "C=CC(=O)Nc1cc(CCN2CCCC2)cc(C)c1Nc1ncc2cc(-c3c(Cl)c(OC)cc(OC)c3Cl)ccc2n1", "values": [{"measurement": "IC50", "setting": "[1]", "value": 4520, "unit": "nM"}]}
{"molecule": "C=CC(=O)Nc1cc(CCN2CCN(CCOC)CC2)cc(C)c1Nc1ncc2cc(-c3c(Cl)c(OC)cc(OC)c3Cl)ccc2n1", "values": [{"measurement": "IC50", "setting": "[1]", "value": 4180, "unit": "nM"}]}
{"molecule": "C=CC(=O)Nc1cccc(C)c1Nc1ncc2cc(-c3c(Cl)c(OC)cc(OC)c3Cl)ccc2n1", "values": [{"measurement": "remaining at 1 h", "setting": "[5]", "value": 15, "unit": "%"}, {"measurement": "IC50", "setting": "[1]", "value": 929, "unit": "nM"}, {"measurement": "Activity", "setting": "[6]", "value": "Active"}]}
{"molecule": "C=CC(=O)Nc1cc(S(N)(=O)=O)cc(C)c1Nc1ncc2cc(-c3c(Cl)c(OC)cc(OC)c3Cl)ccc2n1", "values": [{"measurement": "remaining at 1 h", "setting": "[5]", "value": 50, "unit": "%"}, {"measurement": "remaining at 1 h", "setting": "[7]", "value": 80, "unit": "%"}, {"measurement": "IC50", "setting": "[1]", "value": 1670, "unit": "nM"}, {"measurement": "IC50", "setting": "[2]", "value": 3920, "unit": "nM"}, {"measurement": "IC50", "setting": "[3]", "value": 341, "unit": "nM"}, {"measurement": "Activity", "setting": "[6]", "value": "Active"}, {"measurement": "IC50", "setting": "[4]", "value": 787, "unit": "nM"}]}
{"molecule": "C=CC(=O)N[C@H]1CCOC[C@H]1Nc1ncc2cc(-c3c(Cl)c(OC)cc(OC)c3Cl)ccc2n1", "note": "[FISOGATINIB]", "values": [{"measurement": "IC50", "setting": "[8]", "value": 5, "unit": "nM"}, {"measurement": "IC50", "setting": "[2]", "value": 2200, "unit": "nM"}, {"measurement": "IC50", "setting": "[3]", "value": 1200, "unit": "nM"}]}
{"molecule": "C=CC(=O)Nc1cc(CCCN(C)C)cc(C)c1Nc1ncc2cc(-c3c(Cl)c(OC)cc(OC)c3Cl)ccc2n1", "values": [{"measurement": "inhibition", "setting": "[9]", "value": 55, "unit": "%"}, {"measurement": "IC50", "setting": "[1]", "value": 2240, "unit": "nM"}]}
{"molecule": "C=CC(=O)Nc1cc(CCN2CCC(NC(=O)OC(C)(C)C)CC2)cc(C)c1Nc1ncc2cc(-c3c(Cl)c(OC)cc(OC)c3Cl)ccc2n1", "values": [{"measurement": "IC50", "setting": "[1]", "value": 4480, "unit": "nM"}]}
